Measured values published in patent US7659306B2, “Method of increasing gastric emptying” (The Board of Regents of the University of Texas System, priority 2004, dated 2010).
“Also recorded” adds a separate entry of the source. Like-named read-outs stand apart in the source and are kept apart here.

How the values were obtained:
[1] = biological target: T1, dopamine 3 receptor (D3R) (Rattus norvegicus, UniProt P19020); settings: adult male Sprague-Dawley rats, dopamine 1 mg/kg i.p. plus nafadotride 0.1 or 1 mg/kg i.p., 20 minutes after meal
Experimental: Gastric emptying was assessed in adult male Sprague-Dawley rats by the phenol red method. […] Control rats received vehicle (PBS).
A solution of 50 mg phenol red in 100 ml aqueous methylcellulose (1.5%) was used as a test meal. Methylcellulose (1.5 g, 400 centipoises) was dispersed in 100 ml of hot water (80° C.) under continuous shaking. The solution was allowed to cool to 35° C., and then phenol red was added. Intensity and duration (5 hr) of agitation were kept constant to obtain solutions of reproducible viscosity.
Conscious rats were fed the 0.05% phenol red methylcellulose solution and euthanized after 20 minutes. The stomach was clamped at the pylorus and cardiac ends before removal. The stomach and its contents were homogenized with 100 ml of 0.1N NaOH. A baseline control for each phenol red solution preparation was used by mixing 1.5 ml with 100 ml of 0.1N NaOH. The mixture was then kept for 1 hr at room temperature: 5 ml of the supernatant was added to 0.5 ml of trichloroacetic acid solution (20% w/v) to precipitate the proteins. […] The solutions were then read with a spectrophotometer at a wavelength of 560 nm.
Gastric emptying (G.E.) for each rat was calculated according to the following formula: (1−Absorbance of test sample)/(Absorbance of baseline control)×100%. Values were expressed as mean±SEM. […]

[2] = biological target: T1, dopamine 3 receptor (D3R); test: Electric field stimulation induced relaxation of pyloric strips in an organ bath; design: from tissue; host or cells: whole animal, adult male Sprague-Dawley rat (gastrointestinal tract); settings: pyloric strips of adult male Sprague-Dawley rats, agonist 0.1-10 µM, dose dependent, hydrochloride
Experimental: The pyloric function was assessed by measuring the relaxation of pyloric strips in an organ bath in response to electric field stimulation in the presence of D3R agonist ranging from 0.1-10 µM (1 µM vs control, P<0.05; 10 μM vs control, P=0.001).
Pyloric function was assessed in an organ bath by measuring the relaxation of pyloric strips of adult male Sprague-Dawley rats in the presence of the dopamine 3 receptor agonist, PD 128907 hydrochloride.

[3] = biological target: T1, dopamine 3 receptor (D3R); test: Gastric emptying test (phenol red method) after i.p. D3R agonist; format: in vivo; design: from tissue; host or cells: whole animal, adult male Sprague-Dawley rat (gastrointestinal tract); settings: adult male Sprague-Dawley rats, 1 mg/kg i.p., 20 minutes after phenol red methylcellulose meal, mean±SEM, vehicle 78±4.86%, hydrochloride
Experimental: Values were expressed as mean±SEM.
Adult male Sprague-Dawley rats (weighing 200-250 g) were deprived of food 18 hr prior to experiments but allowed free access to water. The animals were intraperitoneally injected with a dopamine 3 receptor agonist, PD 128907 hydrochloride, at 1 mg/kg or with physiological saline (control) before administration by oral tube of 1.5 ml of pre-warmed (35° C.) 0.05% phenol red solution.

T1 sequence (P19020 whole entry): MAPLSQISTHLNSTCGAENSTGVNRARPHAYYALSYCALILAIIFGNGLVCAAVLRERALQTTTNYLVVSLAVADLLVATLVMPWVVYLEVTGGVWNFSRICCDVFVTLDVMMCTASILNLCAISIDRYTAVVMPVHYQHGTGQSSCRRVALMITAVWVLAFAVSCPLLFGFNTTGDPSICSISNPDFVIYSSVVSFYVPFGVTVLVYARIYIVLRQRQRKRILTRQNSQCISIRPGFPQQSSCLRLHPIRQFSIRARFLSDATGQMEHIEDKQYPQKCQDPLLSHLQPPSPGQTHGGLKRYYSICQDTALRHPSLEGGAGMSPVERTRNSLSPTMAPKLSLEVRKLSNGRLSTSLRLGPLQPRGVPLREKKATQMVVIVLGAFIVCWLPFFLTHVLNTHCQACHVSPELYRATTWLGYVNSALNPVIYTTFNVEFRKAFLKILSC

Row | SMILES | reversal of the effect of dopamine on gastric emptying [1] | reversal of the effect of dopamine on gastric emptying ([1]; listed as Nafadotride) | electric field stimulation induced relaxation of pyloric strips [2] | gastric emptying [3] [%] | gastric emptying ([3]; listed as D3R agonist) [%]
1 | CCCCN1CCCC1CNC(=O)c1cc(C#N)c2ccccc2c1OC (centres unmarked) [nafadotride] | partial reversal of the effect of dopamine on gastric emptying | partially reverse the effect of dopamine |  |  | 
2 | CCCN1CCO[C@@H]2c3cc(O)ccc3OC[C@H]21.Cl [PD 128907 hydrochloride] |  |  | reduced electric field stimulation induced relaxation of pyloric strips; also recorded: significant reduction in electric field stimulation induced relaxation of pyloric strips | 44 | 44±8.26
